Test results from patent US9695155B2, “Herbicidal substituted pyrimidinyloxy benzene compounds” (E. I. DU PONT DE NEMOURS AND COMPANY, priority 2013, dated 2017).

Columns and labels:
barnyardgrass [1] = assay: Test A preemergence; type: in vivo, Echinochloa crus-galli; conditions: for Plant response rating, Barnyardgrass: 31 g ai/ha, 0 to 100 scale where 0 is no effect and 100 is complete control, visual, approximately 10 days; for Barnyardgrass plant response rating (0 to 100 scale, 0 is no effect, 100 is complete control): 125 g ai/ha
Procedure, shortened: (§1)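 Greenhouse pot test, loam/sand soil. Formulation: non-phytotoxic solvent mix plus surfactant. Pre: directed spray onto soil after sowing. Post: plants at 1–2 leaf, 2–10 cm. Rated visually vs untreated controls at ~10 d, 0 (no effect) to 100 (complete control).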

kochia [2] = assay: Test A preemergence; type: in vivo, Kochia scoparia; conditions: for Plant response rating, Kochia: 31 g ai/ha, 0 to 100 scale where 0 is no effect and 100 is complete control, visual, approximately 10 days; for Kochia plant response rating (0 to 100 scale): 125 g ai/ha
Procedure, shortened: as §1

ragweed [3] = assay: Test A preemergence; type: in vivo, Ambrosia elatior; conditions: for Plant response rating, Ragweed: 31 g ai/ha, 0 to 100 scale where 0 is no effect and 100 is complete control, visual, approximately 10 days; for Ragweed plant response rating (0 to 100 scale): 125 g ai/ha
Procedure, shortened: as §1

Italian ryegrass [4] = assay: Test A preemergence; type: in vivo, Lolium multiflorum; conditions: for Plant response rating, Ryegrass, Italian: 31 g ai/ha, 0 to 100 scale where 0 is no effect and 100 is complete control, visual, approximately 10 days; for Ryegrass, Italian plant response rating (0 to 100 scale): 125 g ai/ha
Procedure, shortened: as §1

giant foxtail [5] = assay: Test A preemergence; type: in vivo, Setaria faberii; conditions: for Plant response rating, Foxtail, Giant: 31 g ai/ha, 0 to 100 scale where 0 is no effect and 100 is complete control, visual, approximately 10 days; for Foxtail, Giant plant response rating (0 to 100 scale): 125 g ai/ha
Procedure, shortened: as §1

pigweed [6] = assay: Test A preemergence; type: in vivo, Amaranthus retroflexus; conditions: for Plant response rating, Pigweed: 31 g ai/ha, 0 to 100 scale where 0 is no effect and 100 is complete control, visual, approximately 10 days; for Pigweed plant response rating (0 to 100 scale): 125 g ai/ha
Procedure, shortened: as §1

barnyardgrass [7] = assay: Test A postemergence; type: in vivo, Echinochloa crus-galli; conditions: 0 to 100 scale, 0 no effect, 100 complete control
Procedure, shortened: as §1

kochia [8] = assay: Test A postemergence; type: in vivo, Kochia scoparia; conditions: 0 to 100 scale, 0 no effect, 100 complete control
Procedure, shortened: as §1

ragweed [9] = assay: Test A postemergence; type: in vivo, Ambrosia elatior; conditions: 0 to 100 scale, 0 no effect, 100 complete control
Procedure, shortened: as §1

Italian ryegrass [10] = assay: Test A postemergence; type: in vivo, Lolium multiflorum; conditions: 0 to 100 scale, 0 no effect, 100 complete control
Procedure, shortened: as §1

giant foxtail [11] = assay: Test A postemergence; type: in vivo, Setaria faberii; conditions: 0 to 100 scale, 0 no effect, 100 complete control
Procedure, shortened: as §1

pigweed [12] = assay: Test A postemergence; type: in vivo, Amaranthus retroflexus; conditions: 0 to 100 scale, 0 no effect, 100 complete control
Procedure, shortened: as §1

wheat = assay: Test A postemergence; type: in vivo, Triticum aestivum; conditions: 0 to 100 scale, 0 no effect, 100 complete control
Procedure, shortened: as §1

corn = assay: Test A postemergence; type: in vivo, Zea mays; conditions: 0 to 100 scale, 0 no effect, 100 complete control
Procedure, shortened: as §1

blackgrass = assay: Test A postemergence; type: in vivo, Alopecurus myosuroides; conditions: 0 to 100 scale, 0 no effect, 100 complete control
Procedure, shortened: as §1

galium = assay: Test A postemergence; type: in vivo, Galium aparine; conditions: 0 to 100 scale, 0 no effect, 100 complete control
Procedure, shortened: as §1

rice = assay: Test B flooded paddy test; type: in vivo, Oryza sativa; conditions: Flood, 250 g ai/ha, 0 to 100 scale where 0 is no effect and 100 is complete control
Procedure, shortened: (§2)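 Plants were grown to the 2-leaf stage, then pots were flooded to 3 cm above the soil and compounds were applied directly into the paddy water. That depth was held throughout, and after 13 to 15 days in the greenhouse injury was rated visually against controls on a 0–100 scale (0 no effect, 100 complete control).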

sedge, umbrella = assay: Test B flooded paddy test; type: in vivo, Cyperus difformis; conditions: Flood, 250 g ai/ha, 0 to 100 scale where 0 is no effect and 100 is complete control
Procedure, shortened: as §2

Heteranthera limosa = assay: Test B flooded paddy test; type: in vivo; conditions: Flood, 250 g ai/ha, 0 to 100 scale where 0 is no effect and 100 is complete control
Procedure, shortened: as §2

barnyardgrass [13] = assay: Test B flooded paddy test; type: in vivo, Echinochloa crus-galli; conditions: Flood, 250 g ai/ha, 0 to 100 scale where 0 is no effect and 100 is complete control
Procedure, shortened: as §2

[14] = 1000 g ai/ha, 0 to 100 scale, 0 no effect, 100 complete control, approx. 10 days

With `Fc1cccc(Oc2ncc(Cl)cn2)c1-n1cc(-c2ccsc2)nn1` [Compound 277] the “Plant response rating, Barnyardgrass” value (barnyardgrass [1]) was 0, the “Barnyardgrass plant response rating (0 to 100 scale, 0 is no effect, 100 is complete control)” value (barnyardgrass [1]) was 0 and the “Plant response rating, Kochia” value (kochia [2]) was 0. For the same compound, the “Kochia plant response rating (0 to 100 scale)” value (kochia [2]) was 0, the “Plant response rating, Ragweed” value (ragweed [3]) was 0 and the “Ragweed plant response rating (0 to 100 scale)” value (ragweed [3]) was 0. The “Plant response rating, Ryegrass, Italian” value (Italian ryegrass [4]) was 0, the “Ryegrass, Italian plant response rating (0 to 100 scale)” value (Italian ryegrass [4]) was 0 and the “Plant response rating, Foxtail, Giant” value (giant foxtail [5]) was 30. The “Foxtail, Giant plant response rating (0 to 100 scale)” value (giant foxtail [5]) was 70, the “Plant response rating, Pigweed” value (pigweed [6]) was 30 and the “Pigweed plant response rating (0 to 100 scale)” value (pigweed [6]) was 60. For the same compound, the “Plant response rating, Barnyardgrass” value (barnyardgrass [7]; 31 g ai/ha) was 20, the “Plant response rating, Barnyardgrass” value (barnyardgrass [7]; 125 g ai/ha) was 40 and the “Plant response rating, Kochia” value (kochia [8]; 31 g ai/ha) was 60. For the same compound, the “Plant response rating, Kochia” value (kochia [8]; 125 g ai/ha) was 70, the “Plant response rating, Ragweed” value (ragweed [9]; 31 g ai/ha) was 50 and the “Plant response rating, Ragweed” value (ragweed [9]; 125 g ai/ha) was 60. For the same compound, the “Plant response rating, Ryegrass, Italian” value (Italian ryegrass [10]; 31 g ai/ha) was 30, the “Plant response rating, Ryegrass, Italian” value (Italian ryegrass [10]; 125 g ai/ha) was 50 and the “Plant response rating, Foxtail, Giant” value (giant foxtail [11]; 31 g ai/ha) was 40. For the same compound, the “Plant response rating, Foxtail, Giant” value (giant foxtail [11]; 125 g ai/ha) was 70, the “Plant response rating, Pigweed” value (pigweed [12]; 31 g ai/ha) was 60 and the “Plant response rating, Pigweed” value (pigweed [12]; 125 g ai/ha) was 70. For the same compound, the “Plant response rating, Wheat” value (wheat; 31 g ai/ha) was 0, the “Plant response rating, Wheat” value (wheat; 125 g ai/ha) was 0 and the “Plant response rating, Corn” value (corn; 31 g ai/ha) was 0. The “Plant response rating, Corn” value (corn; 125 g ai/ha) was 20, the “Plant response rating, Blackgrass” value (blackgrass; 31 g ai/ha) was 30 and the “Plant response rating, Blackgrass” value (blackgrass; 125 g ai/ha) was 50. The “Plant response rating, Galium” value (galium; 31 g ai/ha) was 100, the “Plant response rating, Galium” value (galium; 125 g ai/ha) was 100 and the “Plant response rating, Rice” value (rice) was 0. The “Plant response rating, Sedge, Umbrella” value (sedge, umbrella) was 80, the “Plant response rating, Ducksalad” value (Heteranthera limosa) was 80 and the “Plant response rating, Barnyardgrass” value (barnyardgrass [13]) was 0.
For `NC(=O)c1cccc(Oc2ncc(Cl)cn2)c1-n1cc(C(F)(F)F)cn1` [Compound 278], the “Plant response rating, Barnyardgrass” value (barnyardgrass [1]) was 0, the “Barnyardgrass plant response rating (0 to 100 scale, 0 is no effect, 100 is complete control)” value (barnyardgrass [1]) was 0 and the “Plant response rating, Kochia” value (kochia [2]) was 0. The “Kochia plant response rating (0 to 100 scale)” value (kochia [2]) was 0, the “Plant response rating, Ragweed” value (ragweed [3]) was 0 and the “Ragweed plant response rating (0 to 100 scale)” value (ragweed [3]) was 0. The “Plant response rating, Ryegrass, Italian” value (Italian ryegrass [4]) was 0, the “Ryegrass, Italian plant response rating (0 to 100 scale)” value (Italian ryegrass [4]) was 0 and the “Plant response rating, Foxtail, Giant” value (giant foxtail [5]) was 0. For the same compound, the “Foxtail, Giant plant response rating (0 to 100 scale)” value (giant foxtail [5]) was 0, the “Plant response rating, Pigweed” value (pigweed [6]) was 0 and the “Pigweed plant response rating (0 to 100 scale)” value (pigweed [6]) was 10. For the same compound, the “Plant response rating, Barnyardgrass” value (barnyardgrass [7]; 31 g ai/ha) was 0, the “Plant response rating, Barnyardgrass” value (barnyardgrass [7]; 125 g ai/ha) was 0 and the “Plant response rating, Kochia” value (kochia [8]; 31 g ai/ha) was 0. For the same compound, the “Plant response rating, Kochia” value (kochia [8]; 125 g ai/ha) was 0, the “Plant response rating, Ragweed” value (ragweed [9]; 31 g ai/ha) was 0 and the “Plant response rating, Ragweed” value (ragweed [9]; 125 g ai/ha) was 10. The “Plant response rating, Ryegrass, Italian” value (Italian ryegrass [10]; 31 g ai/ha) was 0, the “Plant response rating, Ryegrass, Italian” value (Italian ryegrass [10]; 125 g ai/ha) was 0 and the “Plant response rating, Foxtail, Giant” value (giant foxtail [11]; 31 g ai/ha) was 0. The “Plant response rating, Foxtail, Giant” value (giant foxtail [11]; 125 g ai/ha) was 0, the “Plant response rating, Pigweed” value (pigweed [12]; 31 g ai/ha) was 0 and the “Plant response rating, Pigweed” value (pigweed [12]; 125 g ai/ha) was 10. The “Plant response rating, Wheat” value (wheat; 31 g ai/ha) was 0, the “Plant response rating, Wheat” value (wheat; 125 g ai/ha) was 0 and the “Plant response rating, Corn” value (corn; 31 g ai/ha) was 0. The “Plant response rating, Corn” value (corn; 125 g ai/ha) was 0, the “Plant response rating, Blackgrass” value (blackgrass; 31 g ai/ha) was 0 and the “Plant response rating, Blackgrass” value (blackgrass; 125 g ai/ha) was 0. For the same compound, the “Plant response rating, Galium” value (galium; 31 g ai/ha) was 0, the “Plant response rating, Galium” value (galium; 125 g ai/ha) was 10 and the “Plant response rating, Rice” value (rice) was 0. The “Plant response rating, Sedge, Umbrella” value (sedge, umbrella) was 0, the “Plant response rating, Ducksalad” value (Heteranthera limosa) was 0 and the “Plant response rating, Barnyardgrass” value (barnyardgrass [13]) was 0.
For `FC(F)(F)c1cnn(-c2c(Oc3ncc(Cl)cn3)cccc2-c2nnco2)c1` [Compound 298, 2-[3-[(5-chloro-2-pyrimidinyl)oxy]-2-[4-(trifluoromethyl)-1H-pyrazol-1-yl]phenyl]-1,3,4-oxadiazole], the pest or weed control at 1000 g/ha (barnyardgrass [1]; Echinochloa crus-galli, pre-emergence, 240 h, 1000 g ai/ha, 0 to 100 scale, 0 no effect, 100 complete control, approx. 10 days, read-out: Barnyardgrass plant response rating) was 100%, the “Kochia plant response rating” value (kochia [2]; [14]) was 90 and the “Ragweed plant response rating” value (ragweed [3]; [14]) was 90. The “Ryegrass, Italian plant response rating” value (Italian ryegrass [4]; [14]) was 50, the pest or weed control at 1000 g/ha (giant foxtail [5]; Setaria faberi, pre-emergence, 240 h, 1000 g ai/ha, 0 to 100 scale, 0 no effect, 100 complete control, approx. 10 days, read-out: Foxtail, Giant plant response rating) was 100% and the pest or weed control at 1000 g/ha (pigweed [6]; Amaranthus retroflexus, pre-emergence, 240 h, 1000 g ai/ha, 0 to 100 scale, 0 no effect, 100 complete control, approx. 10 days, read-out: Pigweed plant response rating) was 100%. For the same compound, the pest or weed control at 1000 g/ha (barnyardgrass [7]; Echinochloa crus-galli, post-emergence, 240 h, 1000 g ai/ha, read-out: Plant response rating Barnyardgrass) was 90%, the “Plant response rating, Kochia” value (kochia [8]; 1000 g ai/ha) was 100 and the “Plant response rating, Ragweed” value (ragweed [9]; 1000 g ai/ha) was 90. The “Plant response rating, Ryegrass, Italian” value (Italian ryegrass [10]; 1000 g ai/ha) was 70, the pest or weed control at 1000 g/ha (giant foxtail [11]; Setaria faberi, post-emergence, 240 h, 1000 g ai/ha, read-out: Plant response rating Foxtail, Giant) was 90% and the pest or weed control at 1000 g/ha (pigweed [12]; Amaranthus retroflexus, post-emergence, 240 h, 1000 g ai/ha, read-out: Plant response rating Pigweed) was 100%. For the same compound, the plant injury at 1000 g/ha (wheat; Triticum aestivum, post-emergence, 240 h, 1000 g ai/ha, read-out: Plant response rating Wheat) was 40%, the plant injury at 1000 g/ha (corn; Zea mays, post-emergence, 240 h, 1000 g ai/ha, read-out: Plant response rating Corn) was 70% and the “Plant response rating, Blackgrass” value (blackgrass; 1000 g ai/ha) was 80. The “Plant response rating, Galium” value (galium; 1000 g ai/ha) was 80, the plant injury at 250 g/ha (rice; Oryza sativa, read-out: Plant response rating, Rice) was 0% and the pest or weed control at 250 g/ha (sedge, umbrella; Cyperus difformis, read-out: Plant response rating, Sedge, Umbrella) was 30%. It also gave a pest or weed control at 250 g/ha (Heteranthera limosa; Heteranthera limosa, read-out: Plant response rating, Ducksalad) of 0% and a pest or weed control at 250 g/ha (barnyardgrass [13]; Echinochloa crus-galli, read-out: Plant response rating, Barnyardgrass) of 0%.
